The values that follow come from patent publication US20250381165A1, “Method of Use for Benzofuran Compounds” (Tampa Bay Research Institute, Inc., priority 2024, published 2025).

For one test, the system named is HEK293T. Put plainly: CellTiter-Glo cell viability, HEK293T. The test is classed as cell-based. Particulars: Homo sapiens, HEK-293T. How it is done:
BzFβ was then examined for its effect on the viability of several murine and human cell lines and primary murine splenocytes. The cytotoxicity of BzFβ was assessed using the CellTiter-Glo […] assay system according to manufacturer's instructions to determine BzFβ's effect on the viability of several murine and human cell lines and primary murine splenocytes.
DC2.4 cell line (Dr. Kenneth Rock, University of Massachusetts), RAW 264.7 cell line (American Type Culture Collection (ATCC), Manassas, VA; TIB 71), and IMG cell line (Millipore™, Merck KGaA, Burlington, MA; cat. no. SC-C134) were each cultured in complete Dulbecco's Modified Eagle Medium (cDMEM) containing […] glucose (Gibco™, Thermo Fisher Scientific Inc., Waltham, MA; cat. no. 10566-016) and supplemented with GlutaMAX, 50 U/mL penicillin and 50 µg/mL streptomycin (Gibco™; cat. no. 15070-063) and 10% heat inactivated fetal bovine serum (FBS) (R&D Systems, Inc., Minneapolis, MN; cat. no. […]
The cytotoxicity of BzFβ was assessed using the CellTiter-Glo cell […] viability assay system […] cat. no. […] CellTiter-Glo was added 1:1 in the media and the level of chemiluminescence was measured using luminescence at wavelengths of 200 nm to 700 nm through a photomultiplier on BioTek's Synergy HTX multimode microplate reader. […]
A general note: In ATP-based viability assays light output follows the ATP content of the culture.

Test [1] deals with MHC class I H-2Kb on IMG cells. As to the kind of experiment: Surface MHC class I H-2Kb on IMG cells (AF6-88.5.5.3 flow cytometry). The format is cell-based, murine. The settings on record: 25 μg/mL. As for the experimental part:
By using an MHC class I H-2K^b specific antibody, a relative comparison of the surface MHC class I was measured before and after BzFβ treatment of DC2.4 and IMG cells. […] Cells were centrifuged and washed using cold FACS buffer (DPBS with 5% FBS, 2 mM EDTA, 0.1% sodium azide). Cells were blocked with Fc block (bioLegend™; cat. no. 101320) for 10 min to 15 min to inhibit non-specific binding, followed by staining with fluorophore-conjugated antibodies; one set of cells was stained with the PE-labeled MHC/SIINFEKL specific antibody (clone 25-D1.16, Invitrogen™, Thermo Fisher Scientific Inc., Waltham, MA; cat. no. 12-5743-82), and the other set was stained with the PE-labeled MHC class I H-2Kb specific antibody (AF6-88.5.5.3,Invitrogen™, Thermo Fisher Scientific Inc., Waltham, MA; cat. no. 12-5958-82) PE-labeled MHC class I H-2kb specific (clone AF6-88.5.5.3; Invitrogen™, Thermo Fisher Scientific Inc., Waltham, MA; cat. no. 12-5958-82), for 30 min at 4° C. After washing, the cells were subjected to flow cytometric analysis with the Attune NxT Flow Cytometer (Invitrogen). Cells were gated based on live single-cell populations and positives were assessed using isotype controls and fluor-minus-one analysis when needed. Data were analyzed using the Attune NxT software or FlowJo versions 10.7 and 10.8.
For orientation: In flow cytometry, cells or beads pass a laser one at a time.

For the molecule `O=C(O)/C=C/c1ccc2occc2c1` [BzFβ, (2E)-3-(1-benzofuran-5-yl)prop-2-enoic acid], the IC50 (as a rule, the concentration needed to halve the response being measured) in the test with HEK293T is 432 µM. Also, the “overall surface expression (MFI) of MHC class I” value is on record as “no significant effect” in test [1] (1-4 h) and “significant increase” in test [1] (24 h).
